Measured values as given in PubChem BioAssay (NCI).
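Cells were grown in 96-well plates and exposed to each compound for 48 hours at five concentrations; endpoints were interpolated linearly between bracketing concentrations, or set to the highest concentration if not reached. At the GI50, growth is halved. TGI is the concentration that stops growth completely.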

What was measured:
Experiment in all cases: DTP human tumour cell line panel, 48 h
NCI-H460 lung = tested on: NCI-H460 lung
RXF 393 renal = tested on: RXF 393 renal
HL-60(TB) leukemia = tested on: HL-60(TB) leukemia
A498 renal = tested on: A498 renal
786-0 renal = tested on: 786-0 renal
NCI-H23 lung = tested on: NCI-H23 lung
T-47D breast = tested on: T-47D breast
UO-31 renal = tested on: UO-31 renal
NCI-H522 lung = tested on: NCI-H522 lung
M14 melanoma = tested on: M14 melanoma
BT-549 breast = tested on: BT-549 breast
MOLT-4 leukemia = tested on: MOLT-4 leukemia
SN12C renal = tested on: SN12C renal
SK-OV-3 ovarian = tested on: SK-OV-3 ovarian
HS 578T breast = tested on: HS 578T breast
SF-539 CNS = tested on: SF-539 CNS
SF-295 CNS = tested on: SF-295 CNS
HOP-62 NSCLC = tested on: HOP-62 NSCLC
TK-10 renal = tested on: TK-10 renal
OVCAR-8 ovarian = tested on: OVCAR-8 ovarian
IGROV1 ovarian = tested on: IGROV1 ovarian
U251 CNS = tested on: U251 CNS
OVCAR-4 ovarian = tested on: OVCAR-4 ovarian
NCI-H226 lung = tested on: NCI-H226 lung
A549 NSCLC = tested on: A549 NSCLC
LOX IMVI melanoma = tested on: LOX IMVI melanoma
ACHN renal = tested on: ACHN renal
MDA-MB-435 = tested on: MDA-MB-435
EKVX NSCLC = tested on: EKVX NSCLC

SMILES: C[C@@H](c1ccc2nccn2c1)n1nnc2ncc(-c3cnn(C)c3)nc21
- GI50 (NCI-H460 lung): > 100 µM
- TGI (NCI-H460 lung): > 100 µM
- GI50 (RXF 393 renal): > 100 µM
- TGI (RXF 393 renal): > 100 µM
- GI50 (HL-60(TB) leukemia): > 100 µM
- TGI (HL-60(TB) leukemia): > 100 µM
- GI50 (A498 renal): 72.8 µM
- TGI (A498 renal): > 100 µM
- GI50 (786-0 renal): > 100 µM
- TGI (786-0 renal): > 100 µM
- GI50 (NCI-H23 lung): > 100 µM
- TGI (NCI-H23 lung): > 100 µM
- GI50 (T-47D breast): 53 µM
- TGI (T-47D breast): > 100 µM
- GI50 (UO-31 renal): > 100 µM
- TGI (UO-31 renal): > 100 µM
- GI50 (NCI-H522 lung): > 100 µM
- TGI (NCI-H522 lung): > 100 µM
- GI50 (M14 melanoma): > 100 µM
- TGI (M14 melanoma): > 100 µM
- GI50 (BT-549 breast): 91.7 µM
- TGI (BT-549 breast): > 100 µM
- GI50 (MOLT-4 leukemia): > 100 µM
- TGI (MOLT-4 leukemia): > 100 µM
- GI50 (SN12C renal): > 100 µM
- TGI (SN12C renal): > 100 µM
- GI50 (SK-OV-3 ovarian): > 100 µM
- TGI (SK-OV-3 ovarian): > 100 µM
- GI50 (HS 578T breast): > 100 µM
- TGI (HS 578T breast): > 100 µM
- GI50 (SF-539 CNS): > 100 µM
- TGI (SF-539 CNS): > 100 µM
- GI50 (SF-295 CNS): 0.83 µM
- TGI (SF-295 CNS): > 100 µM
- GI50 (HOP-62 NSCLC): > 100 µM
- TGI (HOP-62 NSCLC): > 100 µM
- GI50 (TK-10 renal): > 100 µM
- TGI (TK-10 renal): > 100 µM
- GI50 (OVCAR-8 ovarian): > 100 µM
- TGI (OVCAR-8 ovarian): > 100 µM
- GI50 (IGROV1 ovarian): > 100 µM
- TGI (IGROV1 ovarian): > 100 µM
- GI50 (U251 CNS): > 100 µM
- TGI (U251 CNS): > 100 µM
- GI50 (OVCAR-4 ovarian): 65.1 µM
- TGI (OVCAR-4 ovarian): > 100 µM
- GI50 (NCI-H226 lung): > 100 µM
- TGI (NCI-H226 lung): > 100 µM
- GI50 (A549 NSCLC): > 100 µM
- TGI (A549 NSCLC): > 100 µM
- GI50 (LOX IMVI melanoma): > 100 µM
- TGI (LOX IMVI melanoma): > 100 µM
- GI50 (ACHN renal): > 100 µM
- TGI (ACHN renal): > 100 µM
- GI50 (MDA-MB-435): > 100 µM
- TGI (MDA-MB-435): > 100 µM
- GI50 (EKVX NSCLC): > 100 µM
